Source: patent US6670383B2, “Pyranocoumarin compounds as a novel pharmacophore with anti-TB activity” (priority 2001, dated 2003)
Converted amounts (≈) assume the structure as drawn. Read-outs that look alike come from different tables or passages of the source.

Tests used:
Experiment in all cases: microbe, parasite or virus in culture
Format in all cases: cell-based
[1] = tested on: M. tuberculosis strain 1371
[2] = tested on: M. tuberculosis strain 1356
[3] = tested on: M. tuberculosis strain 1348
[4] = tested on: M. tuberculosis strain 1369
[5] = Mycobacterium tuberculosis, 1371
[6] = Mycobacterium tuberculosis, 1356
[7] = Mycobacterium tuberculosis, 1348
[8] = Mycobacterium tuberculosis, 1369

| Molecule | fold resistance [1] | MIC [1, 5] | fold resistance [2] | MIC [2, 6] | fold resistance [3] | MIC [3, 7] | fold resistance [4] | MIC [4, 8] | fold resistance ([1]; strain 1371) | fold resistance ([2]; strain 1356) | fold resistance ([3]; strain 1348) | fold resistance ([4]; strain 1369) | MIC ([1]; strain 1371) | MIC ([2]; strain 1356) | MIC ([3]; strain 1348) | MIC ([4]; strain 1369) |
| --- | --- | --- | --- | --- | --- | --- | --- | --- | --- | --- | --- | --- | --- | --- | --- | --- |
| CO[C@H]1/C=C/O[C@@]2(C)Oc3c(C)c(O)c4c(O)c(c(/C=N/N5CCN(C)CC5)c(O)c4c3C2=O)NC(=O)/C(C)=C\C=C\[C@H](C)[C@H](O)[C@@H](C)[C@@H](O)[C@@H](C)[C@H](OC(C)=O)[C@@H]1C [Rifampin] | 0.016 (1) fold | 0.016 µg/mL (≈ 0.0194 µM) | 0.031 (2) fold | 0.031 µg/mL (≈ 0.0377 µM) | 0.031 (2) fold | 0.031 µg/mL (≈ 0.0377 µM) | 64 (4,000) fold | 64 µg/mL (≈ 77.8 µM) |  |  |  |  |  |  |  |  |
| CC[C@@H](CO)NCCN[C@@H](CC)CO [Ethambutol] |  | 2 µg/mL (≈ 9.79 µM) |  | 64 µg/mL (≈ 313 µM) |  | 8 µg/mL (≈ 39.2 µM) |  | 2 µg/mL (≈ 9.79 µM) | 1 fold | 32 fold | 4 fold | 1 fold |  |  |  |  |
| [H]/N=C(/N)N[C@H]1[C@H](O)[C@@H](O)[C@H](O[C@@H]2O[C@@H](C)[C@](O)(C=O)[C@H]2O[C@@H]2O[C@@H](CO)[C@H](O)[C@@H](O)[C@@H]2NC)[C@@H](N/C(N)=N\[H])[C@@H]1O [Streptomycin] |  | > 128 µg/mL |  | 0.25 µg/mL (≈ 0.43 µM) |  | 0.25 µg/mL (≈ 0.43 µM) |  | 0.25 µg/mL (≈ 0.43 µM) | (>512) fold | 1 fold | 1 fold | 1 fold |  |  |  |  |
| NNC(=O)c1ccncc1 [Isoniazid] | 0.031 (1) fold | 0.031 µg/mL (≈ 0.226 µM) | 0.25 (8) fold | 0.25 µg/mL (≈ 1.82 µM) | >128 (>4100) fold | > 128 µg/mL | 0.031 (1) fold | 0.031 µg/mL (≈ 0.226 µM) |  |  |  |  |  |  |  |  |
| (+)-Calanolide A [(+)-Calanolide A (1)] |  |  |  |  |  |  |  |  | 1 fold | 1 fold | 1 fold | 1 fold | 8 µg/mL | 8 µg/mL | 8 µg/mL | 8 µg/mL |
